In patent US8853215B2, “Derivatives of N-acyl-N′-phenylpiperazine useful (inter alia) for the prophylaxis or treatment of diabetes” (Takeda Pharmaceutical Company Limited, priority 2009, dated 2014):

Assays:
RBP4 = RBP4 (Mus musculus (Mouse), UniProt Q00724); test: Single administration test in mice, plasma RBP4 by ELISA; assay type: in vivo; details: male C57BL/6J or ICR mice, 50 mg/kg oral single dose, mean±SD; for RBP4 (% of initial/Control) 0 hr: 0 hr (just before the administration); for RBP4 (% of initial/Control) 4 hr: 4 hr after administration; for RBP4 (% of initial/Control) 7 hr: 7 hr after administration; for RBP4 (% of initial/Control) 24 hr: 24 hr after administration
Method: The action of the compounds of the present invention to reduce plasma RBP4 level was evaluated using the animal model shown below.
Male C57BL/6J and ICR mice were purchased from Charles River (Japan) and maintained on a normal diet (CE2, CLAE Japan, Inc.) and tap water. Animals were housed in a temperature-controlled room adjusted to a 12-hour light/12-hour dark cycle beginning at 7:00 and 19:00, respectively. All procedures were conducted according to the experimental animal care use committee of Takeda Pharmaceutical Company.
Male 6-12-week-old C57BL/6J or ICR mice were housed individually and fed CE2 for 4-6 days. After acclimatization, mice were divided into groups based on their body weight. Compounds were suspended in 0.5% (w/v) methylcellulose in water and given orally to mice at a dose of 50 mg/10 mL/kg of body weight (three to five mice per group). Blood samples were obtained from orbital vein with sodium heparin as an anticoagulant at time 0 hr (just before the administration), 4 hr, 7 hr, and 24 hr after the administration, followed by plasma separation by centrifugation. Plasma RBP4 levels were measured by enzyme-linked immunosorbent assay described in the following section.
Plasma samples were analyzed in duplicate for RBP4 by an enzyme-linked immunosorbent assay. Mouse recombinant RBP4 (Takeda Pharmaceutical Company) was used as standards, and the assay range was 0.313-20 ng/ml. Samples were diluted 10,000-fold with phosphate-buffered saline (PBS) (Sigma) containing 10% (w/v) BlockAce (Dainippon Sumitomo Pharma Co., Ltd). Rabbit anti-RBP4 polyclonal antibody (100 μL/well of 50 μg/mL, Hokudo Co, Ltd) was incubated in a 96-well plate (Nalge Nunc International K.K.) for overnight at 4° C. Subsequently, the plates were washed with PBS-T (Wako Pure Chemical Industries, Ltd.) and blocked with PBS containing 25% BlockAce for 1 hr at room temperature. After another washing with PBS-T, samples and standards were applied to the well, and the plates were incubated for 2 hr at room temperature. After a washing the wells, peroxidase-labeled (Dojindo Laboratories) anti-RBP4 (100 μL/well) was added to the wells, and then the plates were incubated for 1 hr at room temperature. After a final washing with PBS-T, substrate solution 3,3,5,5-tetramethylbenzidine (Sigma) was added to the wells, and the plates were placed in the dark for 5-20 min at room temperature. The reaction was stopped with 0.5 M sulphuric acid and the optical density was measured with a spectrophotometer at 450 nm. The changes in plasma RBP4 levels were expressed as % of initial/Control. All data are presented as mean±SD.

human RBP4 = human RBP4 (Homo sapiens (Human), UniProt P02753); test: Binding assay by Retinol-RBP4-TTR ELISA; details: for inhibition at 10 µM: at 10 μM compound, read-out: human RBP4 binding inhibitory activity(% at 10 μM); for IC50: retinol 50 nM, His-tagged human RBP4, biotinylated human TTR, read-out: human RBP4 binding inhibitory activity (IC50 nM)
Method: The action of the compound of the present invention to inhibit binding of RBP4 and retinol and TTR was evaluated using the Retinol-RBP4-TTR ELISA system shown below.
1F: Binding Assay by Retinol-RBP4-TTR ELISA
This ELISA system detects a complex of RBP4 and TTR based on a retinol-dependent binding of RBP4 to TTR.
His-tagged human RBP4 used was prepared in the above-mentioned 1C.
Biotinylate human TTR used was prepared in the above-mentioned 1E.
Streptavidin (20 μl) (10 μg/ml Streptavidin type II (Wako Pure Chemical Industries, Ltd.), 10 mM Tris-HCl (pH 7.5), 10 mM NaCl) was added to a 384 well black plate (Nunc MaxiSorp, Thermo Fisher Scientific Inc.), and the plate was subjected to centrifugation (1000 rpm, 1 min) and coated overnight at 4° C. The plate was washed twice with PBST (PBS, 0.05% Tween 20, 100 μl/well) and blocked with 25% Block Ace (Snow Brand Milk Products Co., Ltd., PBS, 100 μl/well). The plate was subjected to centrifugation (1000 rpm, 1 min) and incubated at room temperature for 4 hr or overnight at 4° C. The plate was washed twice with PBST (PBS, 0.05% Tween 20, 100 μl/well), and biotinylate human TTR (stock solution concentration 1.0 mg/ml) diluted 750-fold with PBST was added at 20 μl/well. The plate was subjected to centrifugation (1000 rpm, 1 min) and stood still at room temperature for 1.5 hr or overnight at 4° C. The plate was washed 3 times with PBST (100 μl/well), and His-tagged human RBP4 (stock solution concentration 0.96 mg/ml) diluted 4000-fold with a reaction buffer (50 mM Tris-HCl, 150 mM NaCl, 0.005% Tween 20, 1 mM DTT, 0.1% BSA) was added at 10 μl/well. The dilution series (8 doses from 10 mM, 200-fold concentration) of the compound was prepared with DMSO, and 1 μl of each was added to a reaction buffer (200 μl) containing retinol (50 nM) (Sigma-Aldrich Co.). A reaction buffer (200 μl) containing retinol and added with DMSO was used as a positive control, and reaction buffer (200 μl) free of retinol and added with DMSO was used as a negative control. Mixed solutions of retinol and the compound were added to the plate at 15 μl/well. The plate was stirred in a platemixer subjected to centrifugation (1000 rpm, 1 min) and reacted at room temperature for 2 hr. A 35% Block Ace solution diluted with the reaction buffer was added at 10 μl/well, centrifuged (1000 rpm, 1 min) and reacted at room temperature for 30 min. The plate was washed 3 times with PBST (100 μl/well) and SuperSignal ELISA Femto Maximum Sensitivity Substrate reagent (PIERCE, Thermo Fisher Scientific Inc.) was added at 30 μl/well, and the luminescence was measured by a platereader (Wallac).
The binding inhibitory activity of the compound was determined by 100×(positive control value-test compound value)/(positive control value-negative control value). The binding activity (IC50) was calculated from the binding inhibitory rate at each compound concentration using a graph drawing software, GraphPad Prism (GraphPad Software Inc.).

## CC(C)(C)c1cc(Br)ccc1N1CCN(C(=O)C(=O)O)CC1 [Example 67, [4-(4-Bromo-2-tert-butylphenyl)piperazin-1-yl](oxo)acetic acid]
RBP4
  RBP4 (% of initial/Control) 0 hr: 100.0 ± 26.6 % of initial/Control
  RBP4 (% of initial/Control) 4 hr: 44.8 ± 2.9 % of initial/Control
  RBP4 (% of initial/Control) 7 hr: 40.3 ± 1.6 % of initial/Control
  RBP4 (% of initial/Control) 24 hr: 94.9 ± 22.6 % of initial/Control
Human RBP4
  inhibition at 10 µM: 100%

## CC(C)(C)c1ccccc1N1CCN(C(=O)C(=O)Nc2ccc(CCC(=O)O)cc2)CC1 [Example 197, 3-[4-({[4-(2-tert-Butylphenyl)piperazin-1-yl](oxo)acetyl}amino)phenyl]propanoic acid]
RBP4
  RBP4 (% of initial/Control) 0 hr: 100.0 ± 22.3 % of initial/Control
  RBP4 (% of initial/Control) 4 hr: 72.2 ± 3.6 % of initial/Control
  RBP4 (% of initial/Control) 7 hr: 67.0 ± 1.8 % of initial/Control
  RBP4 (% of initial/Control) 24 hr: 91.3 ± 15.9 % of initial/Control
Human RBP4
  inhibition at 10 µM: 100%

## CC(C)(C)c1cc(Cl)ccc1N1CCN(C(=O)c2ccc(OCC(=O)O)cn2)CC1 [Example 210, [(6-{[4-(2-tert-Butyl-4-chlorophenyl)piperazin-1-yl]carbonyl}pyridin-3-yl)oxy]acetic acid]
RBP4
  RBP4 (% of initial/Control) 0 hr: 100.0 ± 10.5 % of initial/Control
  RBP4 (% of initial/Control) 4 hr: 55.3 ± 4.0 % of initial/Control
  RBP4 (% of initial/Control) 7 hr: 54.9 ± 8.8 % of initial/Control
  RBP4 (% of initial/Control) 24 hr: 97.6 ± 24.5 % of initial/Control
Human RBP4
  inhibition at 10 µM: 99%

## CC(C)(C)c1ccccc1N1CCN(C(=O)Cn2cnnn2)CC1 [Example 94, 1-(2-tert-Butylphenyl)-4-(1H-tetrazol-1-ylacetyl)piperazine]
RBP4
  RBP4 (% of initial/Control) 0 hr: 100.0 ± 21.7 % of initial/Control
  RBP4 (% of initial/Control) 4 hr: 45.7 ± 0.8 % of initial/Control
  RBP4 (% of initial/Control) 7 hr: 58.9 ± 5.1 % of initial/Control
  RBP4 (% of initial/Control) 24 hr: 89.2 ± 11.6 % of initial/Control
Human RBP4
  inhibition at 10 µM: 100%

## CC(C)(C)c1ccccc1N1CCN(C(=O)C2(C(=O)O)CC2)CC1 [Example 71, 1-{[4-(2-tert-Butylphenyl)piperazin-1-yl]carbonyl}cyclopropanecarboxylic acid]
RBP4
  RBP4 (% of initial/Control) 0 hr: 100.0 ± 17.1 % of initial/Control
  RBP4 (% of initial/Control) 4 hr: 51.2 ± 1.0 % of initial/Control
  RBP4 (% of initial/Control) 7 hr: 56.7 ± 2.4 % of initial/Control
  RBP4 (% of initial/Control) 24 hr: 120.9 ± 9.0 % of initial/Control
Human RBP4
  inhibition at 10 µM: 100%
  IC50: 150 nM

## CC(C)(C)c1ccccc1N1CCN(C(=O)C(=O)NCC(=O)O)CC1 [Example 87, N-{[4-(2-tert-Butylphenyl)piperazin-1-yl](oxo)acetyl}glycine]
RBP4
  RBP4 (% of initial/Control) 0 hr: 100.0 ± 13.6 % of initial/Control
  RBP4 (% of initial/Control) 4 hr: 36.6 ± 1.0 % of initial/Control
  RBP4 (% of initial/Control) 7 hr: 38.1 ± 1.3 % of initial/Control
  RBP4 (% of initial/Control) 24 hr: 80.3 ± 18.4 % of initial/Control
Human RBP4
  inhibition at 10 µM: 100%

## CC(C)(C)c1cc(Cl)ccc1N1CCN(C(=O)CC(=O)O)CC1 [Example 207, 3-[4-(2-tert-Butyl-4-chlorophenyl)piperazin-1-yl]-3-oxopropanoic acid]
RBP4
  RBP4 (% of initial/Control) 0 hr: 100.0 ± 27.4 % of initial/Control
  RBP4 (% of initial/Control) 4 hr: 43.1 ± 1.7 % of initial/Control
  RBP4 (% of initial/Control) 7 hr: 37.6 ± 0.7 % of initial/Control
  RBP4 (% of initial/Control) 24 hr: 52.0 ± 2.8 % of initial/Control
Human RBP4
  inhibition at 10 µM: 100%

## CC(C)(C)c1ccccc1N1CCN(C(=O)C(=O)NCCc2ccc(C(=O)O)cc2)CC1 [Example 203, 4-[2-({[4-(2-tert-Butylphenyl)piperazin-1-yl](oxo)acetyl}amino)ethyl]benzoic acid]
RBP4
  RBP4 (% of initial/Control) 0 hr: 100 ± 2.82 % of initial/Control
  RBP4 (% of initial/Control) 4 hr: 43.4 ± 1.8 % of initial/Control
  RBP4 (% of initial/Control) 7 hr: 37.2 ± 1.0 % of initial/Control
  RBP4 (% of initial/Control) 24 hr: 107.9 ± 15.6 % of initial/Control
Human RBP4
  inhibition at 10 µM: 100%

## Cc1nc(C(=O)N2CCN(c3ccccc3C(C)(C)C)CC2)cn1CC(=O)O [Example 205, (4-{[4-(2-tert-Butylphenyl)piperazin-1-yl]carbonyl}-2-methyl-1H-imidazol-1-yl)acetic acid]
RBP4
  RBP4 (% of initial/Control) 0 hr: 100.0 ± 18.9 % of initial/Control
  RBP4 (% of initial/Control) 4 hr: 66.3 ± 5.7 % of initial/Control
  RBP4 (% of initial/Control) 7 hr: 75.0 ± 10.8 % of initial/Control
  RBP4 (% of initial/Control) 24 hr: 125.7 ± 20.9 % of initial/Control
Human RBP4
  inhibition at 10 µM: 100%

## CC(C)(C)c1ccccc1N1CCN(C(=O)C(=O)NS(=O)(=O)NCC2CC2)CC1 [Example 39, 2-[4-(2-tert-Butylphenyl)piperazin-1-yl]-N-[(cyclopropylmethyl)sulfamoyl]-2-oxoacetamide]
RBP4
  RBP4 (% of initial/Control) 0 hr: 100.0 ± 5.8 % of initial/Control
  RBP4 (% of initial/Control) 4 hr: 37.1 ± 1.9 % of initial/Control
  RBP4 (% of initial/Control) 7 hr: 45.1 ± 6.2 % of initial/Control
  RBP4 (% of initial/Control) 24 hr: 86.6 ± 12.4 % of initial/Control
Human RBP4
  inhibition at 10 µM: 97%
  IC50: 430 nM

## CC(C)(C)c1ccccc1N1CCN(C(=O)C(=O)N2CCC(C(=O)O)C2)CC1 (stereo not drawn) [Example 191, 1-{[4-(2-tert-Butylphenyl)piperazin-1-yl](oxo)acetyl}pyrrolidine-3-carboxylic acid]
RBP4
  RBP4 (% of initial/Control) 0 hr: 100.0 ± 8.0 % of initial/Control
  RBP4 (% of initial/Control) 4 hr: 65.0 ± 2.2 % of initial/Control
  RBP4 (% of initial/Control) 7 hr: 61.2 ± 2.3 % of initial/Control
  RBP4 (% of initial/Control) 24 hr: 127.6 ± 40.9 % of initial/Control
Human RBP4
  inhibition at 10 µM: 100%

## CC(C)(C)c1cc(Br)ccc1N1CCN(C(=O)CC(=O)O)CC1 [Example 69, 3-[4-(4-Bromo-2-tert-butylphenyl)piperazin-1-yl]-3-oxopropanoic acid]
RBP4
  RBP4 (% of initial/Control) 0 hr: 100.0 ± 13.8 % of initial/Control
  RBP4 (% of initial/Control) 4 hr: 47.7 ± 2.7 % of initial/Control
  RBP4 (% of initial/Control) 7 hr: 44.4 ± 0.7 % of initial/Control
  RBP4 (% of initial/Control) 24 hr: 50.0 ± 2.4 % of initial/Control
Human RBP4
  inhibition at 10 µM: 99%
  IC50: 30 nM
